This note sets out measurements from patent US20260274832A1, “COMPOUNDS AND THEIR USE IN TREATING CANCER” (ASTRAZENECA AB, priority 2023, published 2026).

Structures are written as SMILES.

Test [1] addresses T1, AR (AR-full length) in LNCaP cells (Homo sapiens, UniProt P10275, T878A).
T1 construct: the prostate cancer cell line LNCaP (expressing AR-full length); endogenous in cells; host or cells: LNCaP
The test can be described thus: LNCaP Androgen Receptor Imaging Assay (immunofluorescence of endogenous nuclear AR). Type of test: cell-based. The conditions noted are these: 24 h incubation; for LNCaP AR Degradation Dmax / Dmax: maximum degradation observed, normalized as % of positive control (prior art AR PROTAC at 3 μM); for DC50: concentration giving 50% of maximum degradation of AR per curve fit, single experiment or average of two or more; for Dmax: LNCaP. On the procedure:
This cell-based imaging assay uses immuno-fluorescence to measure endogenous nuclear AR staining in the prostate cancer cell line LNCaP (expressing AR-full length). The purpose of the assay is to identify compounds that regulate AR protein level according to the protocol laid out in the steps below.
(§1) All work was performed in a sterile tissue culture hood up to the point of cell fixation. LNCaP cells were cultured at 6-8×10^6 per T175 flask and split every 3-4 days. Medium: RPMI (R7638, VWR Sigma) containing 10% FCS and 1% glutamine. Cells were plated in black wall transparent bottom plates at a density of 12,000 cells (Cedex™ Cell counter, Beckmann & Coulter), 40 μL per well, using a Multidrop (ThermoFisher).
(§2) Cells were dosed with test compound diluted in DMSO using an Echo 555/655™ (Labcyte) and the final concentration of DMSO in the well was 0.3%. A neutral control (DMSO) and a positive AR degrader control at 3 μM (a prior art AR PROTAC) were included. The Echo uses acoustic technology to perform direct microplate-to-microplate transfers of DMSO compound solutions to assay plates. The system can be programmed to transfer volumes as low as 2.5 nL in multiple increments between microplates and in so doing generates a serial dilution of compound in the assay plate which is then back-filled to normalise the DMSO concentration across the dilution range. Compounds were dispensed as a 12 point dose response with indicated concentrations. The plates were incubated at 37° C./5% CO2 for 24 h and then fixed and stained as below. 40 μL of 8% paraformaldehyde solution (v/v) in phosphate buffered saline (PBS) was added on top of the media already in the well using a Multidrop to fix plates giving a final concentration of 4% PFA (v/v) for 20-30 minutes (keep in fume hood to minimise PFA exposure). After 20-30 mins, the plates were washed with 3×PBS using a BioTek washer in a fume hood. A shake out of remaining volume in the well was performed to ensure best removal of remaining PBS. At this plates could be stored in PBS after washing for at least 3 days at 4° C., if so, PBS was removed by the BioTek before continuing with the next step.
(§3) The cells were incubated with a Mouse monoclonal Anti-AR antibody AR441 (DAKO M3562) (1:1000), diluted in modified blocking buffer (PBS+1% BSA+0.1% TritonX); 15 μL/well for 2 h at RT. The plates were then washed with 3×PBS using a BioTek washer. A shake out of remaining volume in the well was performed to ensure best removal of remaining PBS. Cells were then incubated with Goat anti-mouse secondary antibody 488 (Invitrogen A11001) (1:500) and nuclear stain, DRAQ5 (Abcam Ab108410) (1:2000) diluted in modified blocking buffer for 45 mins at room temperature 15 μL/well. Plates are then washed with 3×PBS using a BioTek washer, without final aspiration, and sealed with black plate seals. Plates could be stored after staining for three days at 4° C. before read if required.
(§4) Plates are read using a Cellomics Cellinsight to measure the Androgen Receptor level in each well. The data is exported into Genedata to perform curve fitting analysis. All data are normalized as % of positive control and the BellFit method automatically determines the correct fit method based on the presence of hook effect, choosing the BellFit when there is a hook and HillFit when there is no hook. Down-regulation of AR is expressed as a DC50 value and determined by calculation of the concentration of compound that is required to give 50% of maximum degradation of AR as per the curve fit for that compound. The maximum degradation observed for each compound is expressed as Dmax. The AR degradation data for compounds is shown in the table below and may be a result from a single experiment or an average of two or more experiments.

Test [2] concerns the target T2, AR (L702H) in LNCaP cells (Homo sapiens, UniProt P10275, L702H/T878A).
T2 construct: engineered to introduce the mutation L702H into the AR gene using CRISPR/Cas9; endogenous in cells; host or cells: LNCaP cells edited by CRISPR/Cas9 at the AR gene
The test can be described thus: LNCaP Androgen Receptor L702H Imaging Assay (LNCaP cells engineered by CRISPR/Cas9). Type of test: cell-based. The following applies: LNCaP cells with AR L702H mutation, 24 h incubation; for LNCaP AR (L702H) Degradation Dmax / Dmax: maximum degradation observed, normalized as % of positive control; for DC50: concentration giving 50% of maximum degradation of AR (L702H) per curve fit; for Dmax: LNCaP. The method, then: as §1, §2, §3, §4
At this stage, anti-androgen therapy is largely ineffective due to AR amplification, overexpression or point mutation. One of the point mutations observed in patient populations is L702H in the AR Ligand Binding Domain. LNCAP cells have been engineered to introduce the mutation L702H into the AR gene using CRISPR/Cas9. The previously described imaging-based AR assay will monitor nuclear AR (L702H) levels in these cells to identify compounds that regulate AR (L702H). […]

T1 sequence (P10275 whole entry T878A): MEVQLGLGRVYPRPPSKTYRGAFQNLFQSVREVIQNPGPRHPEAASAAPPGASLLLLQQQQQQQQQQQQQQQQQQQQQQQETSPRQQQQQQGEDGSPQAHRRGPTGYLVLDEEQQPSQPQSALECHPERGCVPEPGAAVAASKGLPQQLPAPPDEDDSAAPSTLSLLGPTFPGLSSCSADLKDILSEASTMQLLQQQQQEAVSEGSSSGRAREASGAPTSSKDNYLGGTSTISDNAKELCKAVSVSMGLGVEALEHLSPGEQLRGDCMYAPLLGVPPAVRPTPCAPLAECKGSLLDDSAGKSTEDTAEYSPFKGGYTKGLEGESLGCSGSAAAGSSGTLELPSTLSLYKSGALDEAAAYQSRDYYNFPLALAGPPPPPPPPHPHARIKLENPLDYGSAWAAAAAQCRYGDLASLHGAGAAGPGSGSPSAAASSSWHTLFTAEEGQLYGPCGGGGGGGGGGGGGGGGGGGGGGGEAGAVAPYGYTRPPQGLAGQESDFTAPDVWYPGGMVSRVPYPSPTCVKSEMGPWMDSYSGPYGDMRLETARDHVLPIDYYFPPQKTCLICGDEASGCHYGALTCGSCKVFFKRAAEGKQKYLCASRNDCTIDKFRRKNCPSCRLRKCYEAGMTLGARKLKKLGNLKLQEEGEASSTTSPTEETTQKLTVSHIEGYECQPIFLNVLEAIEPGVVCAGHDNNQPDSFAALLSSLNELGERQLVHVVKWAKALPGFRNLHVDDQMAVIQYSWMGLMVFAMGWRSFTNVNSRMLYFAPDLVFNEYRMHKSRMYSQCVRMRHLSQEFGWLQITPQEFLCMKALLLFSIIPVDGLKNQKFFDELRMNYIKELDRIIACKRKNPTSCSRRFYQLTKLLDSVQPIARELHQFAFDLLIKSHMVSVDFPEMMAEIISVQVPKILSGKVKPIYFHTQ
T1 sequence (Q96SW2 whole entry partner): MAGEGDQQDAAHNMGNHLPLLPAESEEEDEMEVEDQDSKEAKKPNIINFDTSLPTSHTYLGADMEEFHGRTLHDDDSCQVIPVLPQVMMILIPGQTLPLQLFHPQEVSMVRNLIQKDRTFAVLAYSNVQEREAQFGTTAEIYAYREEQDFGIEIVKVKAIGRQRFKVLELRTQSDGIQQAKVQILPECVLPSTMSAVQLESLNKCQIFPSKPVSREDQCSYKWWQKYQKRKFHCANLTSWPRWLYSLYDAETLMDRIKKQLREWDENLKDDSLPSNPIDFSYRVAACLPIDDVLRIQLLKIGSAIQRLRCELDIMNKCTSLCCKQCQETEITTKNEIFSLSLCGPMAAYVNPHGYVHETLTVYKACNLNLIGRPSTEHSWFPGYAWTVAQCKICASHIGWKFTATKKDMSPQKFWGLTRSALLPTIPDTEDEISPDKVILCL
T2 sequence (P10275 whole entry L702H/T878A): as the sequence (P10275 whole entry T878A) above, with L702H counted along it
T2 sequence (Q96SW2 whole entry partner): as the sequence (Q96SW2 whole entry partner) above

For the compound `COc1nc(N2CCN(CC3CCN(c4ccc(N5CCCC(c6ccc(Cl)c7c(C#N)c[nH]c67)C5)cc4)CC3)CC2)cc2c1C(=O)N(C1CCC(=O)NC1=O)C2` (single isomer, unassigned) [Example 92, 4-Chloro-7-[(3S*)-1-{4-[4-({4-[2-(2,6-dioxopiperidin-3-yl)-4-methoxy-3-oxo-2,3-dihydro-1H-pyrrolo[3,4-c]pyridin-6-yl]piperazin-1-yl}methyl)piperidin-1-yl]phenyl}piperidin-3-yl]-1H-indole-3-carbonitrile], the “LNCaP AR Degradation Dmax” value in test [1] came out at 100%. Also, the “LNCaP AR (L702H) Degradation Dmax” value in test [2] is 100%.

`N#Cc1c[nH]c2c(C3CCCN(c4ccc(N5CCC(CN6CCN(c7ccc8c(c7)CN(C7CCC(=O)NC7=O)C8=O)CC6)CC5)cc4)C3)ccc(Cl)c12` (single isomer, unassigned) [Example 93, 4-Chloro-7-[(3R*)-1-{4-[4-({4-[2-(2,6-dioxopiperidin-3-yl)-1-oxo-2,3-dihydro-1H-isoindol-5-yl]piperazin-1-yl}methyl)piperidin-1-yl]phenyl}piperidin-3-yl]-1H-indole-3-carbonitrile]: in test [1], it took 0.02 µM to reach half-maximal degradation (DC50) and the Dmax worked out at 87%. In test [2], it took 0.011 µM to reach half-maximal degradation (DC50) and the Dmax amounted to 95%.

For the compound `N#Cc1c[nH]c2c(C3CCCN(c4ccc(C5CCN(CC6CCN(c7ccc8c(c7)CN(C7CCC(=O)NC7=O)C8=O)CC6)CC5)cc4)C3)ccc(Cl)c12` (single isomer, unassigned) [Example 96, 4-Chloro-7-[(3R*)-1-{4-[1-({1-[2-(2,6-dioxopiperidin-3-yl)-1-oxo-2,3-dihydro-1H-isoindol-5-yl]piperidin-4-yl}methyl)piperidin-4-yl]phenyl}piperidin-3-yl]-1H-indole-3-carbonitrile], the DC50 in test [1] is 0.031 µM; in test [2] it was 0.012 µM. Further, the values for the Dmax in test [1] and in test [2] were 54% and 95%, respectively.

On to `N#Cc1c[nH]c2c(C3CCCN(c4ccc(C5CCN(CC6CCN(c7ccc8c(c7)CN(C7CCC(=O)NC7=O)C8=O)CC6)CC5)cc4)C3)ccc(Cl)c12` (single isomer, unassigned) [Example 97, 4-Chloro-7-[(3S*)-1-{4-[1-({1-[2-(2,6-dioxopiperidin-3-yl)-1-oxo-2,3-dihydro-1H-isoindol-5-yl]piperidin-4-yl}methyl)piperidin-4-yl]phenyl}piperidin-3-yl]-1H-indole-3-carbonitrile], for which the DC50 in test [1] and in test [2] was more than 3 µM throughout.

As to `COc1nc(N2CCC(CN3CCC(c4ccc(N5CCCC(c6ccc(Cl)c7c(C#N)c[nH]c67)C5)cc4)CC3)CC2)cc2c1C(=O)N(C1CCC(=O)NC1=O)C2` (single isomer, unassigned) [Example 98, 4-Chloro-7-[(3R*)-1-{4-[1-({1-[2-(2,6-dioxopiperidin-3-yl)-4-methoxy-3-oxo-2,3-dihydro-1H-pyrrolo[3,4-c]pyridin-6-yl]piperidin-4-yl}methyl)piperidin-4-yl]phenyl}piperidin-3-yl]-1H-indole-3-carbonitrile], in test [1], the DC50 came to 0.09 µM and the Dmax was 40%. For the same compound, in test [2], half-maximal degradation (DC50) was put at 0.015 µM and the Dmax came out at 83%.

Turning to `N#Cc1c[nH]c2c(N3CCCC(c4ccc(N5CCC(CN6CCC(n7ccc8c(N9CCC(=O)NC9=O)cccc87)CC6)CC5)nc4)C3)ccc(Cl)c12` (single isomer, unassigned) [Example 115, 4-Chloro-7-[(3S*)-3-{6-[4-({4-[4-(2,4-dioxo-1,3-diazinan-1-yl)-1H-indol-1-yl]piperidin-1-yl}methyl)piperidin-1-yl]pyridin-3-yl}piperidin-1-yl]-1H-indole-3-carbonitrile], in test [1], the DC50 amounted to 0.014 µM and the Dmax worked out at 99%. Also, in test [2], half-maximal degradation (DC50) was put at 0.013 µM and the Dmax came to 102%.

As to `N#Cc1c[nH]c2c(N3CCCC(c4ccc(N5CCC(CN6CCC(n7ccc8c(N9CCC(=O)NC9=O)cccc87)CC6)CC5)nc4)C3)ccc(Cl)c12` (single isomer, unassigned) [Example 116, 4-Chloro-7-[(3R*)-3-{6-[4-({4-[4-(2,4-dioxo-1,3-diazinan-1-yl)-1H-indol-1-yl]piperidin-1-yl}methyl)piperidin-1-yl]pyridin-3-yl}piperidin-1-yl]-1H-indole-3-carbonitrile], in test [1], half-maximal degradation (DC50) was put at 0.011 µM and the “LNCaP AR Degradation Dmax” value is 103%. Further, in test [2], the DC50 came out at 0.023 µM and the “LNCaP AR (L702H) Degradation Dmax” value worked out at 97%.

Consider `N#Cc1c[nH]c2c(N3CCOC(c4ccc(N5CCC(CN6CCC(n7ccc8c(N9CCC(=O)NC9=O)cccc87)CC6)CC5)cc4)C3)ccc(Cl)c12` (single isomer, unassigned) [Example 117, 4-Chloro-7-[(2S*)-2-{4-[4-({4-[4-(2,4-dioxo-1,3-diazinan-1-yl)-1H-indol-1-yl]piperidin-1-yl}methyl)piperidin-1-yl]phenyl}morpholin-4-yl]-1H-indole-3-carbonitrile], for which, in test [1], the DC50 was 0.017 µM and the Dmax came out at 89%. Also, in test [2], it took 0.363 µM to reach half-maximal degradation (DC50) and the Dmax came to 84%.

For `N#Cc1c[nH]c2c(N3CCOC(c4ccc(N5CCC(CN6CCC(n7ccc8c(N9CCC(=O)NC9=O)cccc87)CC6)CC5)cc4)C3)ccc(Cl)c12` (single isomer, unassigned) [Example 118, 4-Chloro-7-[(2R*)-2-{4-[4-({4-[4-(2,4-dioxo-1,3-diazinan-1-yl)-1H-indol-1-yl]piperidin-1-yl}methyl)piperidin-1-yl]phenyl}morpholin-4-yl]-1H-indole-3-carbonitrile], in test [1], it took 0.024 µM to reach half-maximal degradation (DC50) and the “LNCaP AR Degradation Dmax” value was 92%. In test [2], the DC50 was found to be 2.3 µM and the “LNCaP AR (L702H) Degradation Dmax” value worked out at 100%.

Turning to `N#Cc1n[nH]c2c(N3CCOC(c4ccc(N5CCC(CN6CCC(n7ccc8c(N9CCC(=O)NC9=O)cccc87)CC6)CC5)cc4)C3)ccc(Cl)c12` (single isomer, unassigned) [Example 119, 4-Chloro-7-[(2S*)-2-{4-[4-({4-[4-(2,4-dioxo-1,3-diazinan-1-yl)-1H-indol-1-yl]piperidin-1-yl}methyl)piperidin-1-yl]phenyl}morpholin-4-yl]-1H-indazole-3-carbonitrile], the DC50 in test [1] was 0.006 µM; in test [2], 0.014 µM. Further, the Dmax was determined as 99% in test [1] and 103% in test [2].
